Where two headings read alike, the source gives them in different places.
Assays:
[1] = tested on: Branhamella catarrhalis (brca); experiment: Example 3: colony color on chromogenic TSA II with 5% sheep blood (chromogen in medium); assay type: cell-based; settings: for Colony Color: CO2, 21 h
S pyogenes (stpy) = experiment: as above; assay type: cell-based; settings: for Colony Color: 21 h
[2] = tested on: Streptococcus pneumoniae 6303; experiment: Example 1: growth and colony color on plates surface-spread with chromogen; assay type: cell-based; settings: TSA II 5SB; S. pneu: 6303
E. faecium (enfu) = experiment: Example 3: colony color on chromogenic TSA II with 5% sheep blood (chromogen in medium); assay type: cell-based
Salmonella spp. (sasp) = assay type: cell-based; settings: for Colony Color: CO2, 21 h
[3] = tested on: Staphylococcus Coag Neg (step); experiment: Example 3: colony color on chromogenic TSA II with 5% sheep blood (chromogen in medium); assay type: cell-based; settings: 21 h
milu 9341 = experiment: as above; assay type: cell-based; settings: CO2, 21 h
[4] = tested on: Streptococcus agalactiae (stag); experiment: as above; assay type: cell-based
[5] = tested on: Gardnerella vaginalis 14019; experiment: Example 1: growth and colony color on plates surface-spread with chromogen; assay type: cell-based; settings: Summary of Table I; G. vaginalis 14014
[6] = tested on: Staphylococcus aureus (stau); experiment: Example 3: colony color on chromogenic TSA II with 5% sheep blood (chromogen in medium); assay type: cell-based
[7] = tested on: Aeromonas hydrophilia (aehy); experiment: as above; assay type: cell-based; settings: for Colony Color: CO2, 21 h
Group B Strep. 12386 = experiment: Example 1: growth and colony color on plates surface-spread with chromogen; assay type: cell-based; settings: for Growth: Group B Strep 12386
S. milleri (stmi) = experiment: Example 3: colony color on chromogenic TSA II with 5% sheep blood (chromogen in medium); assay type: cell-based; settings: for Colony Color: stmi 6249, 21 h
E. coli 25922 = experiment: Example 2: effect of incubation conditions on colony color formation; assay type: cell-based, Escherichia coli; settings: 0.004 g/plate
[8] = tested on: Citrobacter freundii (cifr); experiment: Example 3: colony color on chromogenic TSA II with 5% sheep blood (chromogen in medium); assay type: cell-based; settings: for Colony Color: CO2, 21 h
[9] = tested on: Pseudomonas aeruginosa (psae); experiment: as above; assay type: cell-based; settings: for Colony Color: CO2, 21 h
[10] = tested on: Entercoccus faecalis (enfa); experiment: as above; assay type: cell-based
S. pneumoniae (stpn) = experiment: as above; assay type: cell-based
N. gonorrhoeae 35201 = experiment: Example 1: growth and colony color on plates surface-spread with chromogen; assay type: cell-based; settings: Substrate on Choclate II Agar; N. gono. 35201
[11] = tested on: Klebsiella pneumoniae (klpn); experiment: Example 3: colony color on chromogenic TSA II with 5% sheep blood (chromogen in medium); assay type: cell-based; settings: for Colony Color: CO2, 21 h
[12] = tested on: Serratia marcescens (sema); experiment: as above; assay type: cell-based
[13] = chromogenic TSA II with 5% Sheep Blood, 0.1 g/l, 2 strains tested
[14] = chromogenic TSA II with 5% Sheep Blood, 0.1 g/l, 6 strains tested
[15] = chromogenic TSA II with 5% Sheep Blood, 0.1 g/l, 1 strain tested
[16] = chromogenic TSA II with 5% Sheep Blood, 0.1 g/l, 3 strains tested

OC[C@H]1O[C@@H](Oc2c[nH]c3ccc(Br)c(Cl)c23)[C@H](O)[C@@H](O)[C@H]1O [X-Gal, 5-Br-4-Cl-3-indolyl-β-D-galactopyranoside]
Colony Color ([1]; brca 25238): 0
Colony Color ([1]; brca 25240): 0
Colony Color (Summary) [1, 13]: 0
Colony Color (Summary) (S pyogenes (stpy); [14]): 0
Colony Color (S pyogenes (stpy); stpy 1027, CO2): 0
Colony Color (S pyogenes (stpy); stpy 1028, CO2): 0
Colony Color (S pyogenes (stpy); stpy 1029, CO2): 0
Colony Color (S pyogenes (stpy); stpy 1030, CO2): 0
Colony Color (S pyogenes (stpy); stpy 19615, CO2): 0
Colony Color (S pyogenes (stpy); stpy 19615, air): 0
Colony Color (S pyogenes (stpy); stpy 49117, CO2): 0
Colony Color (S pyogenes (stpy); stpy 49117, air): 0
Colony Color (S pyogenes (stpy); stpy 51339, CO2): 0
Colony Color (S pyogenes (stpy); stpy 51339, air): 0
Color [2]: light blue
Colony Color (E. faecium (enfu); E. faecium (ATCC 49032)): dark blue
Colony Color (Summary) (E. faecium (enfu); [15]): +
Colony Color (E. faecium (enfu); enfu 49032, CO2, 21 h): gb
Colony Color (E. faecium (enfu); enfu 49032, air, 21 h): db
Colony Color (Summary) (Salmonella spp. (sasp); [13]): 0
Colony Color (Salmonella spp. (sasp); saty 19430): 0
Colony Color (Salmonella spp. (sasp); satym 14028): 0
Colony Color ([3]; step 12228, CO2): 0
Colony Color ([3]; step 12228, air): 0
Colony Color ([3]; step cdc1, CO2): 0
Colony Color ([3]; step cdc1, air): 0
Colony Color ([3]; step cdc2, CO2): 0
Colony Color ([3]; step cdc2, air): 0
Colony Color ([3]; step cdc4, CO2): 0
Colony Color ([3]; step cdc4, air): 0
Colony Color (milu 9341): 0
Colony Color (Summary) [4, 16]: 0
Colony Color ([4]; stag 4768, CO2, 21 h): 0
Colony Color ([4]; stag 4768, air, 21 h): 0
Colony Color ([4]; stag 12386, CO2, 21 h): 0
Colony Color ([4]; stag 12386, CO2, 24 h): 0
Colony Color ([4]; stag 12386, air, 24 h): 0
Substrates Producing Growth Inhibition [5]: X-Gal
Colony Color (Summary) ([6]; chromogenic TSA II with 5% Sheep Blood, 0.1 g/l, 5 strains tested): 0
Colony Color ([6]; stau 1006, CO2, 21 h): 0
Colony Color ([6]; stau 1007, CO2, 21 h): 0
Colony Color ([6]; stau 1008, CO2, 21 h): 0
Colony Color ([6]; stau 1009, CO2, 21 h): 0
Colony Color ([6]; stau 25923, CO2, 24 h): 0
Colony Color ([6]; stau 25923, air, 24 h): 0
Colony Color ([7]; aehy 7965): gb
Colony Color ([7]; aehy 7966): gb
Colony Color ([7]; aehy 49847): gb
Colony Color (Summary) [7, 16]: 0
Substrates Producing Growth Inhibition (Group B Strep. 12386; Summary of Table I, Group B Strep. 12386): Slight inhib. w/ X-
Growth (Group B Strep. 12386; TSA II 5SB): <
Growth (Group B Strep. 12386; TSA Plain): <
Colony Color (Summary) (S. milleri (stmi); [13]): 0
Colony Color (S. milleri (stmi); CO2): 0
Colony Color (S. milleri (stmi); air): 0
Colony Color (E. coli 25922; Chocolate II Agar, 24 h, air): blue (d)
Colony Color (E. coli 25922; TSA II 5% Sheep Blood, 24 h, air): blue (d)
Colony Color (E. coli 25922; TSA II 5% Sheep Blood, 5 d, ANA): blue (d)
Colony Color (E. coli 25922; TSA II 5% Sheep Blood, 5 d, MA): blue (d)
Colony Color (Summary) [8, 13]: +
Colony Color ([8]; cifr 8454): gb
Colony Color ([8]; cifr 33128): gb
Colony Color (Summary) [9, 16]: 0
Colony Color ([9]; psae 9027): 0
Colony Color ([9]; psae 15442): 0
Colony Color ([9]; psae 33607): 0
Colony Color ([10]; enfa 597, CO2, 21 h): 0
Colony Color ([10]; enfa 597, air, 21 h): 0
Colony Color ([10]; enfa 10741, CO2, 21 h): gb
Colony Color ([10]; enfa 10741, air, 21 h): lgb
Colony Color ([10]; enfa 12953, CO2, 21 h): 0
Colony Color ([10]; enfa 12953, air, 21 h): 0
Colony Color ([10]; enfa 14506, CO2, 21 h): lgb
Colony Color ([10]; enfa 14506, air, 21 h): 0
Colony Color ([10]; enfa 29212, CO2, 21 h): gb
Colony Color ([10]; enfa 29212, CO2, 24 h): vlgb
Colony Color ([10]; enfa 29212, air, 21 h): gb
Colony Color ([10]; enfa 29212, air, 24 h): vlgb
Colony Color (Summary) (S. pneumoniae (stpn); [14]): 0
Colony Color (S. pneumoniae (stpn); stpn 1259, CO2, 21 h): 0
Colony Color (S. pneumoniae (stpn); stpn 1260, CO2, 21 h): 0
Colony Color (S. pneumoniae (stpn); stpn 1628, CO2, 21 h): 0
Colony Color (S. pneumoniae (stpn); stpn 6303, CO2, 24 h): 0
Colony Color (S. pneumoniae (stpn); stpn 6303, air, 24 h): 0
Colony Color (S. pneumoniae (stpn); stpn 6305, CO2, 24 h): 0
Colony Color (S. pneumoniae (stpn); stpn 6305, air, 24 h): 0
Growth (N. gonorrhoeae 35201): <
Colony Color (Summary) [11, 16]: +
Colony Color ([11]; klpn 13883): gb
Colony Color ([11]; klpn 33606): gb
Colony Color (Summary) [12, 15]: +
Colony Color ([12]; sema 13880, CO2, 21 h): gb
